The target of one assay is recombinant dSir2 (Drosophila melanogaster, UniProt Q9VK34). Kind of assay: dSir2 deacetylation assay (Fluor de Lys). It is filed as biochemical, D. melanogaster. Particulars: dose-dependent; maximum.
Another assay concerns the target recombinant GST-Sir2 (Saccharomyces cerevisiae, UniProt P06700). Nature of the assay: Sir2 deacetylation assay. It is filed as biochemical, S. cerevisiae. The procedure:
Average lifespan for wild type, 22.9 generations, quercetin, 23.4; piceatannol.
His6-tagged recombinant SIRT1 and GST-tagged recombinant Sir2 were prepared as previously described^26. From 0.1 to 1 μg of SIRT1 and 1.5 μg of Sir2 were used per deacetylation assay (in 50 μl total reaction) as previously described^26. SIRT1 assays and certain of those for Sir2 employed the p53-382 acetylated substrate (‘Fluor de Lys-SIRT1’, BIOMOL) rather than FdL.
Themed compound libraries (BIOMOL) were used for primary and secondary screening. Most polyphenol compounds were dissolved at 10 mM in dimethylsulfoxide (DMSO) on the day of the assay. For water soluble compounds and negative controls, 1% v/v DMSO was added to the assay. In vitro fluorescence assay results were read in white ½-volume 96-well microplates (Corning Costar 3693) with a CytoFluor™ II fluorescence plate reader (PerSeptive Biosystems, Ex. 360 nm, Em. 460 nm, gain=85). HeLa cells were grown and the cellular deacetylation assays were performed and read, as above, but in full-volume 96-well microplates (Corning Costar 3595). […] Calculation of net fluorescence increases included subtraction of a blank value, which in the case of Sir2 was obtained by omitting the enzyme from the reaction and in the case of SIRT1 by adding an inhibitor (200 μM suramin or 1 mM nicotinamide) to the reaction prior to the acetylated substrate. […]

The test system of a further assay is NIH3T3 cells. Kind of assay: Adipocyte differentiation and fat content, Oil Red O. The format is cell-based. Particulars: 10 days of differentiation. The procedure:
(§1) After 10 days of differentiation, cells were fixed and stained with Oil red O. Oil red 0 was extracted from stained cells and quantified by measuring absorbance at 520 nm. B. Oil red 0 quantitation is shown as fold change relative to the 3T3-L1 sample treated with 0 μM resvratrol.
(§2) After 10 days of differentiation, fat content was assessed by Oil Red O staining, as described below. […] The results in NIH3T3 cells confirm the results obtained in C. elegans.
(§3) 3T3-L1 and NIH3T3 cells were maintained in DMEM plus 10% calf serum. Adipocyte differentiation of 3T3-L1 cells was performed as described previously (MacDougald, O. A. and Lane, M. D. (1995). Transcriptional regulation of gene expression during adipocyte differentiation. Annu. Rev. Biochem. 64, 345-373). NIH3T3 cells were induced to form adipocytes under the same conditions as 3T3-L1 cells, but with 6 days of treatment with insulin, dexamethasone, and isobutylmethylxanthine in 10% fetal calf serum after cells reach confluence. The staining of adipocytes with Oil Red-O and quantitation was performed as described previously (Ramirez-Zacarias J L, Castro-Munozledo F, Kuri-Harcuch W. Histochemistry. 1992 97(6): 493-7).

The subject of another assay is 3T3-L1 cells. The assay is described as above. The format is cell-based. The protocol: as §1, §2, §3
For another assay, the system named is phosphorylation of ACC. Kind of assay: ACC phosphorylation Western in 3T3-L1 adipocytes. Particulars: day 6 and day 10 of differentiation. It is filed as cell-based. The protocol:
ACC was also phosphorylated when the cells were incubated in serum free media overnight before harvesting (lanes marked “SF”). The reason for the extra band in the SIRT1 blot at day 6 is unknown, but it may be a modified form of SIRT1. Tubulin served as a loading control.

Molecules are shown by their SMILES. “Also recorded” adds a separate entry of the source.

Chain of recombinant GST-Sir2 (P06700 whole entry): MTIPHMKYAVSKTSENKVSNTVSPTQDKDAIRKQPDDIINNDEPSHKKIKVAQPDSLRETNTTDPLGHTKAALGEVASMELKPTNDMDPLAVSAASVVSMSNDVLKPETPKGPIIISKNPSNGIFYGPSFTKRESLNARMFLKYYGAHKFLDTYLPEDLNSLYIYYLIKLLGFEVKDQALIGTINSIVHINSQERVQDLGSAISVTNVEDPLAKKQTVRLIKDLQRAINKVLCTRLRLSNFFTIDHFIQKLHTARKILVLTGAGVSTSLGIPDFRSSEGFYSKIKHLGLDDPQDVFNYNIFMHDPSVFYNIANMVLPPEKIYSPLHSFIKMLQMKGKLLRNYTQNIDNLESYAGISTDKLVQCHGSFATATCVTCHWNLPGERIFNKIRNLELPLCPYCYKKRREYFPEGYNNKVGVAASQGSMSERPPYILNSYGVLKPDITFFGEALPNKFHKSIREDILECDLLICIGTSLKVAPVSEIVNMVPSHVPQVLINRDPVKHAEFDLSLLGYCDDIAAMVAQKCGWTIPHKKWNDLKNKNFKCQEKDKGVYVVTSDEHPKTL
Chain of recombinant dSir2 (Q9VK34 whole entry): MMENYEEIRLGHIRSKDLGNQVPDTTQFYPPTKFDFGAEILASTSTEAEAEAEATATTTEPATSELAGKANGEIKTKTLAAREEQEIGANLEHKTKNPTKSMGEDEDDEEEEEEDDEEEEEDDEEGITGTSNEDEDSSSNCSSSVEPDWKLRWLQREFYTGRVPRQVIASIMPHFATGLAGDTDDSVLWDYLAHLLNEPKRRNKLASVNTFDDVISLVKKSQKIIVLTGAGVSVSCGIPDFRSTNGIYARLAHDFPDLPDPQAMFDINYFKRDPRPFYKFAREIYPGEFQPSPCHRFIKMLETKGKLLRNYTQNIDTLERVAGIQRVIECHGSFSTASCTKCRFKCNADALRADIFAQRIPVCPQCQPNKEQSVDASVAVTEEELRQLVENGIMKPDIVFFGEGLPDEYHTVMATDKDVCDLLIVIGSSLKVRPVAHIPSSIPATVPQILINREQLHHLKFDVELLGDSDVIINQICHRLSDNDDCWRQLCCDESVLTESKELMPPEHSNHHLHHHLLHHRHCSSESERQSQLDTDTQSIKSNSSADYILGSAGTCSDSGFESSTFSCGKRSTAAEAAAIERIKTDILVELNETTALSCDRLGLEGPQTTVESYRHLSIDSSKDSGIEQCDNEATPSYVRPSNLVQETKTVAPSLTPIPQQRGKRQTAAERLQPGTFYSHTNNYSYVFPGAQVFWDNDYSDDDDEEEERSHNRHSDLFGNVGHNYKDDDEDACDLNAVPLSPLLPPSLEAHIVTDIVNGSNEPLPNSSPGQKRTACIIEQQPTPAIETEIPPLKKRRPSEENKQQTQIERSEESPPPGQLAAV
Method for recombinant dSir2: From 0.1 to 1 μg of SIR-2.1 and 1 μg of dSir2 were used per deacetylation assay as previously described with modifications (SIR-2.1: 200 μM NAD^+, 10 μM Fluor de Lys, FdL; dSir2: 25 μM NAD^+, 10 μM FdL)^26. STACs were dissolved at 10 mM in dimethylsulfoxide (DMSO) the day of the assay. In vitro fluorescence assay results were read in 96-well microplates (Corning Costar 3693) with a Wallac Victor Multilabel counter (Perkin Elmer, excitation at 360 nm, emission at 450 nm). Drosophila S2 cells were grown in Schneider media with fetal calf serum at 23-28° C., seeded at 9×10^4 cells/well, grown overnight and then exposed to 1 μM TSA, 500 μM polyphenols, and 200 μM FdL for 2 hr. Deacetylation of FdL with lysate from whole cells was determined as described^4. Unless otherwise indicated all initial rate measurements were means of three or more replicates obtained with single incubation times, at which point 5% or less of the substrate initially present was deacetylated.

On to `Oc1ccc(/C=C/c2cc(O)cc(O)c2)cc1` [Resveratrol, 3,5,4′-Trihydroxy-trans-stilbene], for which the Stimulation of deacetylation at recombinant dSir2 was at most 2.4 fold. In addition, at recombinant GST-Sir2, the “Concentrations at which inhibition was seen” value was above 100 µM and the “Optimum concentration of activator” value was 2 to 5 µM. Besides, the “Concentrations that decreased the quantity of cellular fat” value in the assay with NIH3T3 cells was at least 25 µM. Further, the “Concentrations that decreased the quantity of cellular fat” value with 3T3-L1 cells (10 days of differentiation) is at least 25 µM. The PPARγ expression result with 3T3-L1 cells (resveratrol-treated cells) is given as “did not show an increase; also recorded: marked decrease”. Further, in the assay with phosphorylation of ACC, the “Phosphorylation of ACC” value was “stimulated the phosphorylation of ACC”.

The record behind these values is patent publication US20060276416A1, “Methods and compositions for treating flushing and drug induced weight gain” (Sirtris Pharmaceuticals, Inc., priority 2005, published 2006).
